The first experiment concerns the target Leukotriene B4 receptor (Cavia porcellus). The experiment in a line: Inhibition of [3H]LTB4 binding to Leukotriene B4 receptor in the guinea pig spleen membranes.
Consider `CC(CCCCOc1cc(-c2ccccc2)cc(-c2ccccc2F)n1)C(=O)O` (centres undefined), for which the IC50 stood at 4 nM.
The molecule `O=C(O)CCCCCOc1cc(-c2ccccc2Cl)cc(-c2ccccc2)n1` returned an IC50 of 200 nM.
On the same count and under the same terms, to `COC(=O)CCCCCOc1cc(-c2ccccc2)cc(-c2ccccc2)n1` belongs 40 nM.
`O=C(O)CCCCCOc1cc(-c2ccc([N+](=O)[O-])cc2)cc(-c2ccccc2)n1` displayed an IC50 of 50 nM.
As for `CC(CCCCOc1cc(-c2ccc3c(c2)OCO3)cc(-c2ccccc2Cl)n1)C(=O)O` (centres undefined), the IC50 was determined as 2 nM.
Take `O=C(O)CCCCCOc1cc(-c2ccccc2)cc(-c2ccccc2)n1`: the IC50 came out at 3 nM.
`CC(C)(CCCCCCOc1cc(-c2ccccc2)cc(-c2ccccc2)n1)C(=O)O` registered an IC50 of 22 nM.
Take `CC(C)(CCCCOc1cc(-c2ccc(N)cc2)cc(-c2ccccc2)n1)C(=O)O`: the IC50 amounted to 6.6 nM. This IC50 lies about 3.3-fold lower than the previous one.
Same read-out and setting: with `CC(CCCCOc1cc(-c2ccccc2)cc(-c2ccccc2)n1)C(=O)O` (centres undefined) the figure was 4 nM.
Molecule `O=C(O)CCCCOc1cc(-c2ccccc2)cc(-c2ccccc2)n1` gave an IC50 of 50 nM. This IC50 lies about 12-fold higher than the previous one.
The same measure, in the same setting: with `O=C(O)CCCCCCOc1cc(-c2ccccc2)cc(-c2ccccc2)n1` the figure was 25 nM; with `O=C(O)CCCCCOc1cc(-c2ccc3c(c2)OCO3)cc(-c2ccccc2)n1`, 1 nM; with `O=C(O)CCCCCOc1cc(-c2ccc(NC(=O)C(F)(F)F)cc2)cc(-c2ccccc2)n1`, 150 nM.
Still for that read-out and setting: to `CC(CCCCOc1cc(-c2ccc3c(c2)OCO3)cc(-c2ccccc2)n1)C(=O)O` (centres undefined) belongs 4.2 nM.

The target is the same in the next experiment. The description is as above. The source holds these as a separate data set.
For `O=C(O)CCCOc1cc(-c2ccccc2)cc(-c2ccccc2)n1`, the IC50 came out at 300 nM. In other words, the sub-micromolar range.
For the molecule `COc1ccc(-c2cc(-c3ccccc3)cc(OCCCCCC(=O)O)n2)cc1`, the IC50 was 1000 nM.
`Cc1ccc(-c2cc(-c3ccccc3)cc(OCCCCCC(=O)O)n2)cc1` showed an IC50 of 300 nM.
On to `NC(=O)CCCCCOc1cc(-c2ccccc2)cc(-c2ccccc2)n1`, for which the IC50 worked out at 160 nM.
On the same count and under the same terms, to `N#CCCCCCOc1cc(-c2ccccc2)cc(-c2ccccc2)n1` belongs 700 nM.

Broadly, the IC50 is the concentration that inhibits the measured activity by half. Higher therefore signals weaker potency in that assay.

(Values after BindingDB's records for doi:10.1021/jm00101a008 (Centre De Recherche De Vitry-Alfortville, 1992).)
